Source: PMC6273329, “Synthesis of N-(6-Arylbenzo[d]thiazole-2-acetamide Derivatives and Their Biological Activities: An Experimental and Computational Approach” (Molecules, 2016)
≈ marks a conversion by molar mass, not a printed value. Read-outs that look alike come from different tables or passages of the source.

Legend:
[1] = Nitric oxide scavenging assay (Garrat method, Griess reagent)
Description: The literature contains reports on the antioxidant activities of 6-flourobenzothiazole-substituted triazoles using DPPH assays. […] Having a phenyl ring on the pyrozoline increased the antioxidant activity in the ferric ion reduction and DPPH solution methods. […] Synthesized compounds with their calculated IC50 values are listed in Table 5 (Figure 8 and Figure 9).
The activity of newly synthesized benzothiazole derivatives was determined using the Garrat method. Griess reported the Garrat method which is followed by a diazotization reaction. Under acidic conditions, this method utilizes sodium nitroprusside as the source of nitric oxide, sulfanilamide and N-1-naphthylethylenediamine dihydrochloride to detect NO2^−, produced at the expense of nitric oxide. A known amount of tested compounds 3a–3h was dissolved in sodium nitroprusside solution (20 mM, 100 µL) and then the volume was made up to 1000 µL with phosphate buffer (200 mM, pH 7.4). This solution was incubated for 2 h at 37 °C and Griess reagent (100 µL) was added. This solution was stored for 20 min at room temperature. At 528 nm, optical density of this colored solution was observed. For positive control, ascorbic acid was used.

red blood cells = assay type: cell-based
Description: The haemolytic activity of benzothiazole derivatives has already been reported. […] Benzothiazole compounds with halogen substitutions show cytotoxicity towards cancer cell lines. The haemolytic activity of the newly synthesized benzothiazole derivatives were studied against Triton X-100 by a reported method.
Haemolytic activity of newly synthesized benzothiazole derivatives 3a–3h was determined using a reported method. Solutions of compounds were prepared at concentrations of 1 mg/mL in 10% DMSO with 90% water Heparinized human fresh blood (3 mL) was used that was homogeneously mixed and added into a 15 mL sterile Falcon tube. It was centrifuged for 5 min and the supernatant was removed. Chilled sterile isotonic phosphate buffer saline solution (5 mL, 7.4 pH) at 4 °C was used three times. Washed red blood cells were suspended in chilled RBS (20 mL). A haemacytometer was used for counting erythrocytes. For each assay 7.068 × 10^8 red blood cells per mL count were maintained and then diluted blood cells (180 µL) were added to the test compound (20 µL) and suspended in Eppendorf tubes. It was incubated for 35 min at 37 °C then the tubes were kept in an ice bath for 5 min and centrifuged again for 5 min. After centrifugation, the obtained supernatant was collected carefully and diluted with 900 µL of chilled PBS. All these tubes were kept in ice bath and solution (200 µL) was added into 96 well plates from each Eppendrof tube. For each essay, Triton X-100 (0.1%) was taken as positive control. For negative control, phosphate buffer was used. A microplate reader was used for determining the absorbance at 576 nm.

urease = urease (Canavalia ensiformis, UniProt P07374); assay: biochemical; assay type: biochemical; conditions: for IC50: urease inhibition, in vitro; for inhibition at 15 µg/mL: read-out: % Inhibition at 15 µg/mL, 15 µg/mL; for inhibition at 15 µg/mL / inhibition at 40 µg/mL / % Inhibition at 40 µg/mL: mean ± SD of three measurements; for inhibition at 40 µg/mL: read-out: % Inhibition at 40 µg/mL, 40 µg/mL
S. dysenteriae = assay: Antibacterial activity, 96 well plate method; assay type: cell-based; conditions: Shigella dysenteriae, read-out: % Activity at 40 μg/mL, S. dysenteriae
Description: The synthesized benzothiazole derivatives were examined for their anti-bacterial activity against two Gram positive-bacterial strains (Baccilus subtiles, Staphylococcus aureus) and four Gram-negative strains (Escherichia coli, Psuedomonas aeruginosa, Shigella dysenteriae, Salmonella typhae) at concentrations of 40 and 80 μg/mL (Table 7 and Table 8). It was concluded that the potent antibacterial activities of these compounds might be due to electron withdrawing groups present on the aryl moiety in N-protected benzothiazole molecule.
These newly benzothiazole derivatives were tested for their antibacterial activities against two Gram positive strains (Baccilus subtilis, Staphylococcus aureus) and four Gram negative strains (Escherichia coli, Psuedomonas aeruginosa, Shigella dysenteriae and Salmonella typhae) using a reported protocol. Streptomycin was used as positive control. The 96 well plate method was optimized for measuring the antibacterial activities of these compounds. In each well, sterilized broth (175 µL) was added and inoculated with glycerol stock (5 µL) of a specific bacterial strain. The initial absorbance was observed between 0.12–0.19. […] After a certain waiting time (12 h), test sample (20 µL) was added to the pre-determined wells. […] The difference in absorbance values were observed and were used as an index of bacterial growth. […]

[2] = human, 35 min, 0.1 mg/mL, pH 7.4

Chain of urease (P07374 whole entry, looked up): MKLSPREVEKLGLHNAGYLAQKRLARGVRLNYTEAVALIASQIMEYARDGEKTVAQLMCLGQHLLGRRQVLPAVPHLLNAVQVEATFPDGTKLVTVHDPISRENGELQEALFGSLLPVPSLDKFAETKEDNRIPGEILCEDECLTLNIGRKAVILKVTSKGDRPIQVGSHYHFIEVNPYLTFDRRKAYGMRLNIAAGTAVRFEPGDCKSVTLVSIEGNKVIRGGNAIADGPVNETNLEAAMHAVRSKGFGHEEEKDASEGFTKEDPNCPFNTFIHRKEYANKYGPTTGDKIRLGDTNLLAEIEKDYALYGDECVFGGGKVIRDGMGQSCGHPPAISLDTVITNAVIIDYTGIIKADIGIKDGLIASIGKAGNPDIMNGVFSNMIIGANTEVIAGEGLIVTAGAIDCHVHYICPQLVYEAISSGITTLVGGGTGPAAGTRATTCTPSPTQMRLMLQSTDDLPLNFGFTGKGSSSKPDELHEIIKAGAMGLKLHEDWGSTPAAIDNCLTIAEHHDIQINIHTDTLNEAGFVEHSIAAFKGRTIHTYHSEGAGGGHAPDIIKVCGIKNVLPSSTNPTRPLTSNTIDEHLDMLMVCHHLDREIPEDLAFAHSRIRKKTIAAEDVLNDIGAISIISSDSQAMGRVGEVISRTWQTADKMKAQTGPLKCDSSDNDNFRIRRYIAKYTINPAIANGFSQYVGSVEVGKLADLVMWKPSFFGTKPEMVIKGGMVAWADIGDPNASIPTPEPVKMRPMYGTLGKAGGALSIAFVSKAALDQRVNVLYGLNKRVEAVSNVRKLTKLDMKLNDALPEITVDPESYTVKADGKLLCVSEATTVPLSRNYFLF

O=C1O[C@H]([C@@H](O)CO)C(O)=C1O [Ascorbic acid, reference compound]
IC50 (µg/mL) nitric oxide scavenging [1]: 50.43 µg/mL (≈ 286 µM)

CC(=O)Nc1nc2ccc(Br)cc2s1 [Compound 2, N-(6-bromobenzo[d]thiazol-2-yl)acetamide]
% lysis of RBC (red blood cells; compound solutions 1 mg/mL in 10% DMSO, human RBC, 35 min at 37 °C, mean ± SD of three): 44.628 ± 0.369%

CC(=O)Nc1nc2ccc(-c3ccccc3)cc2s1 [Compound 3a, N-(6-Phenylbenzo[d]thiazol-2-yl)acetamide]
IC50 (µg/mL) nitric oxide scavenging [1]: 32.7 µg/mL (≈ 122 µM) | % lysis of RBC (red blood cells; [2]): 42.123 ± 0.479% | IC50 (urease; IC50 (µg/mL)): 69.3 µM | inhibition at 15 µg/mL (urease): 44 ± 0.12% | inhibition at 40 µg/mL (urease): 83.9 ± 0.12%

CC(=O)Nc1nc2ccc(-c3ccc(C)cc3)cc2s1 [Compound 3b, N-(6-(p-Tolyl)benzo[d]thiazol-2-yl)acetamide]
melting point: 205 to 207 °C | IC50 (µg/mL) nitric oxide scavenging [1]: 26.4 µg/mL (≈ 93.5 µM) | % lysis of RBC (red blood cells; [2]): 44.179 ± 0.157% | IC50 (urease; IC50 (µg/mL)): 58.4 µM | inhibition at 15 µg/mL (urease): 47 ± 0.11% | inhibition at 40 µg/mL (urease): 90.51 ± 0.19%

CC(=O)Nc1nc2ccc(-c3cc(C(F)(F)F)cc(C(F)(F)F)c3)cc2s1 [Compound 3c, N-(6-(3,5-bis(Trifluoromethyl)phenyl)benzo[d]thiazol-2-yl)acetamide]
% lysis of RBC (red blood cells; [2]): 47.089 ± 0.130% | % Inhibition at 40 µg/mL (urease): 90.07 ± 0.20% | IC50 (urease; IC50 (µg/mL)): 42.5 µM | inhibition at 15 µg/mL (urease): 46.09 ± 0.1% | inhibition at 40 µg/mL (urease): 90.33 ± 0.2%

COc1ccc(-c2ccc3nc(NC(C)=O)sc3c2)cc1 [Compound 3d, N-(6-(4-Methoxyphenyl)benzo[d]thiazol-2-yl)acetamide]
melting point: 218 to 220 °C | % lysis of RBC (red blood cells; [2]): 44.078 ± 0.279% | IC50 (urease; IC50 (µg/mL)): 57 µM | inhibition at 15 µg/mL (urease): 46.5 ± 0.15% | inhibition at 40 µg/mL (urease): 88.5 ± 0.24%

CC(=O)Nc1nc2ccc(-c3ccc(C)s3)cc2s1 [Compound 3e, N-(6-(5-Methylthiophen-2-yl)benzo[d]thiazol-2-yl)acetamide]
IC50 (µg/mL) nitric oxide scavenging [1]: 37.1 µg/mL (≈ 129 µM) | % lysis of RBC (red blood cells; [2]): 44.425 ± 0.181% | IC50 (urease; IC50 (µg/mL)): 59.6 µM | inhibition at 15 µg/mL (urease): 46 ± 0.12% | inhibition at 40 µg/mL (urease): 87 ± 0.26%

CC(=O)Nc1nc2ccc(-c3cc(C#N)cc(C(F)(F)F)c3)cc2s1 [Compound 3f, N-(6-(3-Cyano-5-(trifluoromethyl)phenyl)benzo[d]thiazol-2-yl)acetamide]
nitric oxide scavenging activity (in words) [1]: inactive | % lysis of RBC (red blood cells; [2]): 44.063 ± 0.314% | IC50 (urease; IC50 (µg/mL)): 53.1 µM | inhibition at 15 µg/mL (urease): 42 ± 0.12% | inhibition at 40 µg/mL (urease): 87.5 ± 0.26%

CC(=O)Nc1nc2ccc(-c3ccc(F)c(Cl)c3)cc2s1 [Compound 3g, N-(6-(3-Chloro-4-fluorophenyl)benzo[d]thiazol-2-yl)acetamide]
melting point: 166 to 167 °C | IC50 (µg/mL) nitric oxide scavenging [1]: 39.1 µg/mL (≈ 122 µM) | % lysis of RBC (red blood cells; [2]): 43.614 ± 0.157% | IC50 (urease; IC50 (µg/mL)): 58.9 µM | inhibition at 15 µg/mL (urease): 42 ± 0.14% | inhibition at 40 µg/mL (urease): 87 ± 0.26%

CC(=O)Nc1nc2ccc(-c3cc(C)cc(C)c3)cc2s1 [Compound 3h, N-(6-(3,5-Dimethylphenyl)benzo[d]thiazol-2-yl)acetamide]
melting point: 205 to 207 °C | inhibition at 40 µg/mL (S. dysenteriae): 3.51 ± 0.43% | IC50 (µg/mL) nitric oxide scavenging [1]: 32.3 µg/mL (≈ 109 µM) | % lysis of RBC (red blood cells; [2]): 40.661 ± 0.216% | % Inhibition at 40 µg/mL (urease): 90.33 ± 0.20% | IC50 (urease; IC50 (µg/mL)): 62.1 µM | inhibition at 15 µg/mL (urease): 43.59 ± 0.13% | inhibition at 40 µg/mL (urease): 90.07 ± 0.2%

NC(N)=S [Thiourea, reference compound]
IC50 (urease): 23.1 µg/mL
